Measurements: patent publication US20010006969A1, “PYRIMIDINE NUCLEUS-CONTAINING COMPOUND AND A MEDICAMENT CONTAINING THE SAME FOR A BLOOD OXYGEN PARTIAL PRESSURE AMELIORATION, AND A METHOD FOR PREPARING THE SAME” (priority 1997, published 2001)
Structures can show the parent of a compound that is named as a salt.

test system: hypoxemic model rats; test: Determination of oxygen partial pressure increasing action (arterial blood PaO2 gain in hypoxemic model rats); assay type: in vivo, Sprague-Dawley male rats; settings: quinazoline derivatives; urethane-anesthetized rats, hypoxic state (PaO2≦75 mmHg) by olive oil-charcoal powder suspension; i.v. continuously 0.1 mg/kg/min; PaO2 measured 10 minutes after completion of administration; gain before vs after
Description: Determination of oxygen partial pressure increasing action
Actions of the quinazoline derivatives of the present invention to increase oxygen partial pressure in the arterial blood were determined according to the following method:
Sprague-Dawley male rats having body weights of about 250 g were anesthetized (i.p.) with urethane and cannulated to the respiratory tracts, femoral arteries and femoral veins. An olive oil-charcoal powder suspension (10 mg/ml) was introduced in an amount of 0.8 ml/kg through the respiratory tract cannulae into the lungs to cause the rats to hypoxic state (PaO2≦75 mmHg). The quinazoline derivatives listed in Table 1 were intravenously administered to these hypoxemic model rats continuously at a rate of 0.1 mg/kg/min, and arterial blood oxygen partial pressure value (PaO2) of each rat was measured at the time point of 10 minutes after completion of administration using a blood gas analyzer (Ciba Corning 800 series). Gains (APaO2) were determined based on results of PaO2 measurement made before and after administration of the test compounds.
Actions of the thienopyrimidine derivatives of the present invention to increase oxygen partial pressure in the arterial blood were determined according to the following method:
Sprague-Dawley male rats having body weights of about 250 g were anesthetized (i.p.) with urethane and cannulated to the respiratory tracts, femoral arteries and femoral veins. An olive oil-charcoal powder suspension (10 mg/ml) was introduced in an amount of 0.8 ml/kg through the respiratory tract cannulae into the lungs to cause the rats to be under hypoxic state (PaO2 Δ 75 mmHg). The thienopyrimidine derivatives listed in Table 2 were intravenously administered to these hypoxemic model rats continuously at a rate of 0.1 mg/kg/min, and arterial blood oxygen partial pressure value (PaO2) of each rat was measured at the time point of 10 minutes after completion of administration using a blood gas analyzer (Ciba Corning 800 series). Gains (ΔPaO2) were determined based on results of PaO2 measurement made before and after administration of the test compounds.

SMILES | ΔPaO2 [mmHg]
C=CCNc1nc(NC(C)CC)c2cc([N+](=O)[O-])ccc2n1 (stereo not drawn) [Example 49, 2-Allyiamino-4-(l-methylpropylamino)-6-nitroquinazoline hydrochloride] | 32
C=CCNc1nc(NCc2ccco2)nc2ccc([N+](=O)[O-])cc12 [Example 33, 4-Allylamino-2-furfurylamino-6-nitroquinazoline hydrochloride] | 42
C=CCNc1nc(NC2CCCC2)nc2ccc([N+](=O)[O-])cc12 [Example 34, 4-Allylamino-2-cyclopentylamino-6-nitroquinazoline hydrochloride] | 32
C=CCNc1nc(NCCCCCCC)c2cc([N+](=O)[O-])ccc2n1 [Example 26, 2-Allylamino-4-heptylamino-6-nitroquinazoline hydrochloride] | 46
C=CCNc1nc(NCCCC)nc2ccc([N+](=O)[O-])cc12 [Example 31, 4-Allylamino-2-butylamino-6-nitroquinazoline hydrochloride] | 36
C=CCNc1nc(NC(C)C)c2cc([N+](=O)[O-])ccc2n1 [Example 28, 2-Allylamino-4-isopropylamino-6-nitroquinazoline hydrochloride] | 26

same assay, conditions: thienopyrimidine derivatives; urethane-anesthetized rats, hypoxic state (PaO2 Δ 75 mmHg) by olive oil-charcoal powder suspension; i.v. continuously 0.1 mg/kg/min; PaO2 measured 10 minutes after completion of administration; gain before vs after

SMILES | ΔPaO2 [mmHg]
C=CCNc1nc(NC)c2scc(CCC)c2n1 [Example 107, 2-Allylamino-4-methylamino-7-propylthieno[3,2-d] pyrimidine] | 41
C=CCNc1nc(N(CC=C)CC=C)c2scc(C)c2n1 [Example 71, 2-Allylamino-4-diallylamino-7-methylthieno[3,2-d] pyrimidine hydrochloride] | 26
C=CCNc1nc(NC(C)(C)C)c2scc(CCC)c2n1 [Example 106, 2-Allylamino-4-t-butylamino-7-propylthieno[3,2-d] pyrimidine] | 28
C=CCNc1nc(NCC=C)c2scc(CCC)c2n1 [Example 105, 2,4-Diallylamino-7-propylthieno[3,2-d]pyrimidine] | 28
C=CCNc1nc(NC(C)(C)C)c2scc(CC)c2n1 [Example 104, 2-Allylamino-4-t-butylamino-7-ethylthieno[3,2-d]pyrimidine] | 41

test system: not given; test: not given; settings: not given

SMILES | melting point
C=CCNc1nc(NC(C)CC)nc2ccc([N+](=O)[O-])cc12 (stereo not drawn) (as salt: hydrochloride) | 219 to 220 °C
C=CC(C)Nc1nc(NCCCC)nc2ccc([N+](=O)[O-])cc12 (stereo not drawn) [Example 62, 2-Butylamino-4-(1-methyl-2-propenylamino)-6-nitroquinazoline] | 156 to 158 °C
C=CCNc1nc(NC(C)(C)C)nc2ccc([N+](=O)[O-])cc12 [Example 19, 4-Allylamino-2-t-butylamino-6-nitroquinazoline] | 139 to 140 °C
C=CCNc1nc(NCCOC)nc2c(C)csc12 [Example 85, 4-Allylamino-2-(2-methoxyethylamino)-7-methylthieno[3,2-d] pyrimidine] | 87 to 88 °C
C=CCNc1nc(NCC(F)(F)F)nc2ccc([N+](=O)[O-])cc12 [Example 56, 4-Allylamino-2-(2,2,2-trifluoroethylamino)-6-nitroquinazoline] | 221 to 222 °C
C=CCNc1nc(NCCOCCC)nc2ccc([N+](=O)[O-])cc12 [Example 38, 4-Allylamino-6-nitro-2-(2-propoxyethylamino)quinazoline] | 169 to 170 °C
C=CCNc1nc(NC)nc2ccc([N+](=O)[O-])cc12 [Example 16, 4-Allylamino-2-methylamino-6-nitroquinazoline] | 238 to 239 °C
C=CCNc1nc(NC(C)=O)nc2ccc([N+](=O)[O-])cc12 [Example 44, 2-Acetylamino-4-allylamino-6-nitroquinazoline] | 239 to 240 °C
C=CCNc1nc(NCC=C)c2cc(NC)ccc2n1 (as salt: hydrochloride) | 155 to 158 °C
C=CCNc1nc(NC(C)C)c2scc(C)c2n1 [Example 77, 2-Allylamino-4-isopropylamino-7-methylthieno[3,2-d] pyrimidine] | 106 to 107 °C
C=CCNc1nc(N2CCCCC2)c2cc([N+](=O)[O-])ccc2n1 [Example 13, 2-Allylamino-6-nitro-4-piperidinoquinazoline] | 123 to 124 °C
C=CCNc1nc(NC(CO)CO)c2scc(C)c2n1 [Example 73, 2-Allylamino-4-(1,3-dihydroxypropan-2-yl)amino-7-methylthieno[3,2-d]pyrimidine] | 163 to 164 °C
C=CCNc1nc(NCC(C)(C)C)c2cc([N+](=O)[O-])ccc2n1 [Example 11, 2-Allylamino-4-neopentylamino-6-nitroauinazoline] | 216 to 217 °C
C=CCNc1nc(NC(=O)NC2CCCCC2)c2scc(C)c2n1 [Example 93, 2-Allylamino-4-(cyclohexylcarbamoyl)amino-7-methylthieno[3,2-d]pyrimidine] | 152 to 153 °C
CC(C)=CCNc1nc(NCC=C(C)C)c2cc([N+](=O)[O-])ccc2n1 [Example 61, 2,4-Bis(3-methyl-2-butenylamino)-6-nitroquinazoline] | 168 to 172 °C
C=CCNc1nc(NCC(F)(F)F)c2cc([N+](=O)[O-])ccc2n1 [Example 55, 2-Allylamino-4-(2,2,2-trifluoroethylamino)-6-nitroquinazoline] | 215 to 216 °C

SMILES | melting point
C=CCNc1nc(N(CC=C)CC=C)nc2c(C)csc12 (as salt: hydrochloride) | 136 to 138 °C (dec.)
C=CCNc1nc(NCc2ccco2)nc2ccc([N+](=O)[O-])cc12 (as salt: hydrochloride) [Example 33, 4-Allylamino-2-furfurylamino-6-nitroquinazoline hydrochloride] | 217 to 218 °C
C=CCNc1nc(NC/C=C/c2ccccc2)c2cc([N+](=O)[O-])ccc2n1 [Example 23, 2-Allylamino-4-trans-cinnamylamino-6-nitroquinazoline] | 206 to 208 °C
C=CCNc1nc(N(CC=C)CC=C)nc2ccc([N+](=O)[O-])cc12 [Example 9, 4-Allylamino-2-diallylamino-6-nitroquinazoline] | 167 to 168 °C
C=CCNC(=O)CCNc1nc(NCC=C)nc2c(C)csc12 [Example 112, 2-Allylamino-4-[2-(allylcarbamoyl)ethylamino]-7-methylthieno[3,2-d]pyrimidine] | 95 to 96 °C
C=CCNc1nc(NN(C)C)c2cc([N+](=O)[O-])ccc2n1 [Example 46, 2-Allylamino-4-(2,2-dimethylhydrazino)-6-nitroquinazoline] | 145 to 146 °C
C=CCNc1nc(NC/C=C/c2ccccc2)c2scc(C)c2n1 [Example 102, 2-Allylamino-4-(trans-cinnamylamino)-7-methylthieno[3,2-d] pyrimidine] | 82 to 84 °C
C=CCNc1nc(NCC=C(C)C)nc2ccc([N+](=O)[O-])cc12 [Example 58, 4-Allylamino-2-(3-methyl-2-butenylamino)-6-nitroquinazoline] | 194 to 195 °C
C=CCN(C(=O)NC(C)(C)C)c1nc(NC(=O)NC(C)(C)C)c2cc([N+](=O)[O-])ccc2n1 [Example 41, 2-[N-allyl-N-(t-butylcarbamoyl)amino]-4-(t-butylcarbamoyl)amino-6-nitroquinazoline] | 105 to 106 °C
C=CCNc1nc(N(CC=C)CC=C)nc2ccc(Cl)cc12 [Example 15, 4-Allylamino-2-diallylamino-6-chloroquinazoline] | 73 to 74 °C
C=CCNc1nc(NC(C)=O)c2cc([N+](=O)[O-])ccc2n1 [Example 42, 4-Acetylamino-2-allylamino-6-nitroquinazoline] | 253 to 254 °C
C=CCNc1nc(NC(=O)NC(C)(C)C)c2cc([N+](=O)[O-])ccc2n1 [Example 40, 2-Allylamino-4-(t-butylcarbamoyl)amino-6-nitroquinazoline] | 200 to 201 °C
C=CCNc1nc(NC(C)CC)c2cc([N+](=O)[O-])ccc2n1 (stereo not drawn) (as salt: hydrochloride) [Example 49, 2-Allyiamino-4-(l-methylpropylamino)-6-nitroquinazoline hydrochloride] | 176 to 177 °C
C#CCNc1nc(NCC=C)c2cc([N+](=O)[O-])ccc2n1 [Example 29, 4-Allylamino-6-nitro-2-(2-propynylamino)quinazoline] | 192 to 193 °C
C=CCNc1nc(NCC=C(C)C)c2scc(C)c2n1 [Example 101, 2-Allylamino-7-methyl-4-(3-methyl-2-butenylamino)thieno[3,2-d]pyrimidine] | 114 to 115 °C
